In one experiment the target is T1, Squalene synthase (Rattus norvegicus, UniProt Q02769).
T1 construct: from tissue; host or cells: rat liver microsomes
T1 sequence (Q02769 1-416): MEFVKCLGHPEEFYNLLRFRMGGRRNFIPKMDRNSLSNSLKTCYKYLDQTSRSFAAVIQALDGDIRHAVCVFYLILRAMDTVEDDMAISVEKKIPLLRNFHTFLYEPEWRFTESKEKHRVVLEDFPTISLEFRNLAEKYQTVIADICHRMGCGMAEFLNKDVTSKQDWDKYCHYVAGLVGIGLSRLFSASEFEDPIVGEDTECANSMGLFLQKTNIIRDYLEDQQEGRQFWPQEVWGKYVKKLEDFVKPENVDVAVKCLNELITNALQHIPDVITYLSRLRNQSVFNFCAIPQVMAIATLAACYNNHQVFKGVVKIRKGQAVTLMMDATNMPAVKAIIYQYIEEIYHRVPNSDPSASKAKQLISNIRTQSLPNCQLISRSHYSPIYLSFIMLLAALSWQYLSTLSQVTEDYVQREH
The experiment in a line: Inhibition of Squalene synthase (formation of squalene from tritiated farnesyl pyrophosphate, rat liver microsomal protein). In kind it is biochemical. The conditions noted are these: substrate 1-[3H]-farnesyl pyrophosphate 20µM, 37°C, 15 minutes, read-out: IC50 (concentration which results in a 50% inhibition of squalene production). The protocol:
In this test, the ability of a compound to prevent the formation of squalene from a radioactive substrate (tritiated farnesyl pyrophosphate) is assessed.
The test compound is incubated at a concentration of 25 micromolar in 200µl of a buffered solution containing potassium phosphate (50mM), MgCl2 (4.95mM), KF (9.9mM), NADPH (0.9mM) and rat liver microsomal protein (20µg). Rat liver microsomes are prepared by the method described in published European Patent Application No. 324,421 and stored in liquid nitrogen prior to assay. Assay vials are kept at 37°C throughout the incubation.
The reaction is started with the addition of the substrate (1-[^3H]-farnesyl pyrophosphate), final concentration 20µM, and stopped after 15 minutes reaction time with the addition of 50µl of 4% KOH. The reaction products are separated from unreacted substrate after application to a C-18 octadecyl lccBond column (Analytichem Int product No. 617101). An aqueous fraction is eluted with 250µl of 0.1M KOH. Squalene is then eluted with 1.0 ml 10% ethylacetate in hexane and radioactivity determined. The difference in radioactivity in the presence and absence of the test compound is used to determine the level of inhibition. […]

For experiment [1], the system named is de novo hepatic cholesterol synthesis. The experiment in a line: Acute rat cholesterol synthesis assay (de novo hepatic cholesterol synthesis from 14C-acetate). In kind it is in vivo. The conditions noted are these: female rats, [2-14C]-acetate ip 1 hour after compound, plasma sampled after a further hour, route not stated. The protocol:
This is an acute in vivo test in the rat to measure de novo hepatic cholesterol synthesis from exogenously administered ^14C-acetate.
Female rats (35 - 55 g) are housed in reverse lighting conditions (red light from 0200h - 1400h) for a period of about 2 weeks prior to test. Animals are allowed free access to chow and drinking water throughout this period. At test, animals should weigh 125 - 150 g.
Test compounds may be administered by oral gavage, dissolved or suspended in 0.5% polysorbate, or by ip or iv dosing. Control animals receive vehicle alone. After 1 hour the rats are injected ip with 25µCi [2-^14C]-acetate (NEN DUPONT. specific activity, 45-60mCi/mmol NEC-085H, or AMERSHAM specific activity, 50-60mCi/mmol CFA 14) in a volume of 0.25 ml saline (100µCi/ml). After a further hour a blood sample was obtained from the abdominal vena cava under terminal halothane anaesthesia.
1ml of plasma is lyophilised and then saponified in 2ml ethanolic KOH (1 part 33% KOH, 9 parts ethanol) at 75°C for 2 hours. After addition of an equal quantity of water, non-saponifiable lipids are extracted with […] 5ml volumes of hexane. The hexane extracts are evaporated to dryness and the residues dissolved in ethanol to determine cholesterol specific radioactivity. ED50 values can be determined in the standard way.

We go through two molecules from patent publication EP0596057B1, “QUINUCLIDINE DERIVATIVES AS SQUALENE SYNTHASE INHIBITORS” (priority 1992, dated 1993).

pIC50: −log10 of the molar value.

As to `OC1(c2ccc(COc3ccccc3)cc2)CN2CCC1CC2` (centres unmarked) [Example 2, 3-(4-phenoxymethylphenyl)-quinuclidin-3-ol], the pIC50 on Squalene synthase was 7.52. In experiment [1], `OC1(c2ccc(C#Cc3ccccc3)cc2)CN2CCC1CC2` (centres unmarked) [Example 4, 3-(4-phenylethyn-2-ylphenyl)quinuclidin-3-ol] registered an ED50 of 29 mg/kg.

The term ED50 denotes the midpoint of the dose-response relation. High values mean a need for a large dose, low ones an effect at a small dose.
